Reference: publication PMC11455950, “Effects of SZV-2649, a new multiple ion channel inhibitor mexiletine analogue” (Scientific Reports, 2024)

How the values were obtained:
[1] = system: inward rectifier potassium (IK1) current; assay: Whole-cell patch-clamp, steady state current-voltage relation in dog ventricular myocytes; type: cell-based; details: 10 µM, dog left ventricular myocytes
Source text: (§1) The effects of SZV-2649 on transmemrane ionic currents were investigated in dog cardiac myocytes after a 5-minute superfusion of the drug.
Figure 4D represents the steady state current-voltage relation after 300 ms pulses from − 100 mV to 60 mV using 10 mV increments applying 3-second pulsing cycle length from the holding potential of -90 mV.
Ventricular myocytes from Beagle dogs were enzymatically dissociated as described in detail previously. A single droplet of cell suspension was placed in a transparent recording chamber mounted on the stage of an inverted microscope (Olympus IX51, Olympus, Tokyo, Japan), and individual myocytes were allowed to settle and adhere to the chamber bottom for at least 5–10 min before superfusion was initiated and maintained by gravity. Only rod-shaped cells with clear striations were used. […]
(§2) The membrane currents were recorded with Axopatch-200B amplifiers (Molecular Devices, Sunnyvale, CA, USA) by means of the whole-cell configuration of the patch-clamp technique. […]
(§3) The inward rectifier (IK1), the transient outward (Ito), the rapid (IKr) and the slow (IKs) delayed rectifier potassium currents were recorded in HEPES-buffered Tyrode’s solution. […] When IKr was recorded, IKs was inhibited by using the selective IKs blocker HMR-1556 (0.5 µM). […]

dog atrial muscle = assay: Conventional microelectrode action potential recording, dog atrial muscle; details: for APA / APD50 / APD90 / RP / Vmax: atrial muscle, CL = 1000 ms, n = 11
Method: The effects of SZV-2649 on action potentials were studied in dog ventricular, atrial and Purkinje fiber preparations.
Action potentials were recorded in cardiac ventricular trabeculae and papillary muscle preparations obtained from the right ventricles of Beagle dogs (10–15 kg) of either sex using the conventional microelectrode technique. Dogs were sacrificed by iv. sedation with xylazine (1 mg/kg), followed by i.v. administration of 50 mg/kg pentobarbital. After the cornea reflex disapeared the chest was opened, and the heart was rapidly removed. The heart was immediately rinsed in oxygenated modified Locke’s solution containing (in mM): NaCl 128.3, KCl 4, CaCl2 1.8, MgCl2 0.42, NaHCO3 21.4, and glucose 10. The pH of this solution was set between 7.35 and 7.4 when gassed with the mixture of 95% O2 and 5% CO2 at 37 °C.
Isolated papillary muscle or atrial trabecula and Purkinje fiber preparations were obtained and prepared from the right ventricle and were individually mounted in a tissue chamber with the volume of 50 ml. Each preparation was initially stimulated through a pair of platinum electrodes in contact with the preparation using rectangular current pulses of 2 ms duration. These stimuli were delivered at a constant cycle length of 1000 ms for at least 60 min allowing the preparation to equilibrate before the measurements were initiated. Transmembrane potentials were recorded using conventional glass microelectrodes, filled with 3 M KCl and having tip resistances of 5–20 MΩ, connected to the input of a high impedance electrometer (Experimetria, type 309, Budapest, Hungary) which was coupled to a dual beam oscilloscope. […] Stimulation with a constant cycle length of 1000 ms was applied in the course of all experiments. Attempts were made to maintain the same impalement throughout each experiment. In case an impalement became dislodged, adjustment was attempted, and if the action potential characteristics of the re-established impalement deviated by less than 5% from the previous measurement, the experiment continued[64]–[67]. All measurements were carried out at 37 °C.

[2] = system: rapid delayed rectifier potassium current (IKr); assay: Whole-cell patch-clamp, rapid delayed rectifier potassium current in dog ventricular myocytes; type: cell-based; details: Canis lupus familiaris, Ventricular myocyte, tail current, dog left ventricular myocytes
Method: as §1
The rapid delayed rectifier potassium current (IKr) was elicited from the holding potential of -80 mV following a prepulse to -40 mV. IKr tail current was measured at a post pulse to -40 mV after 1 s long test pulses from − 30 mV to 50 mV using 10 mV increments at the pulsing cycle length of 20 s (see inset of Fig. 4A). The effect of SZV-2649 was investigated at 1 and 5 µM concentrations.
Ventricular myocytes from Beagle dogs were enzymatically dissociated as described in detail previously. […]
as §2, §3

anesthetized rats = assay: Coronary artery occlusion/reperfusion-induced ventricular arrhythmias in anesthetized rats; type: in vivo, rat
Source text: The effects of SZV-2649 were further studied in the acute ischemia-induced ventricular arrhythmia model in anasthetized rats. Mexiletine and dofetilide were used as reference compounds for comparison.
The surgical procedure was based on a modified method described in detail in Gömöri et al. (2020)[62]. Pentobarbital-anesthetized male Wistar-Hannover rats were mechanically ventilated and subjected to thoracic surgery to perform a 6-min coronary artery occlusion and 5-min of reperfusion for the development of ischemia-induced ventricular arrhythmias (see Fig. 6A). The right jugular vein was cannulated for the administration of SZV-2649, vehicle, mexiletine or dofetilide, and the right carotid artery was used to measure blood pressure. The three-lead electrocardiogram and body temperature were continuously registered. Ten to twelve rats per group were administered vehicle (dimethyl sulfoxide, 200 µL/kg) or the studied drugs (see above), 2 min before the onset of ischemia as a slow i.v. bolus injection through the right jugular vein. At the end of 5-min reperfusion, hearts were isolated, mounted onto a Langendorff perfusion system, and after re-occluding the coronary artery, were perfused with 5-mL of 70% ethanol via the ascending aorta to delineate the ischemic risk zone. Then the left ventricles were cut along the demarcation lines of denatured area, and the sections were weighed to determine the area of risk to normalize the extent of the ischaemic insult. We evaluated the occurrence of ventricular arrhythmias based on the recommendations of the modified Lambeth Conventions published previously by Curtis et al. (2013)[63].

CC(N)COc1c(I)cc(C#N)cc1I.Cl (centres unmarked) [SZV-2649, 4-(2-aminopropoxy)-3,5-diiodobenzonitrile hydrochloride]
Effect on inward rectifier potassium (IK1) current, steady state current-voltage relation [1]: no discernible effects
APA (dog atrial muscle; 5 µM): 108.8 ± 1.9 mV
APD50 (dog atrial muscle; 5 µM): 73.3 ± 6.2 ms
APD90 (dog atrial muscle; 5 µM): 168.9 ± 8.8 ms
RP (dog atrial muscle; 5 µM): −88.2 ± 1.8 mV
Vmax (dog atrial muscle; 5 µM): 195.3 ± 22.0 V/s
APA (dog atrial muscle; 10 µM): 102.6 ± 3.2 mV
APD50 (dog atrial muscle; 10 µM): 70.1 ± 6.2 ms
APD90 (dog atrial muscle; 10 µM): 176.8 ± 8.5 ms
RP (dog atrial muscle; 10 µM): −85.1 ± 1.7 mV
Vmax (dog atrial muscle; 10 µM): 145.9 ± 12.1 V/s
Prolongation of repolarization (APD) in the absence of carbachol (dog atrial muscle; 10 µM, dog atrial muscle): 10%
inhibition at 1 µM ([2]; 1 µM): ~23%
inhibition at 5 µM ([2]; 5 µM): ~75%
Effect on incidence of ventricular arrhythmias (anesthetized rats; 6 min coronary artery occlusion / 5 min reperfusion, i.v. 2 min before ischemia): markedly reduced
Incidence of ventricular fibrillation (VF) (anesthetized rats; during reperfusion, over 50% in control animals): 0%
Effect on heart rate (anesthetized rats; i.v. administration, anesthetized rats): significantly decreased
